Assay results reported in PubChem BioAssay (NCI).
Values joined by “and” are separate entries in the source; they are usually repeats but may differ in a detail not shown here. Equal values may be shown once.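 The compound was tested at five concentrations on cells cultured in 96-well plates, with a 48-hour exposure period. GI50 = concentration required for 50% inhibition of growth. TGI denotes the concentration required for complete inhibition of growth.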

What was measured:
Experiment in all cases: NCI-60 cell line screen, 48 h
EKVX NSCLC = test system: EKVX NSCLC
NCI/ADR-RES ovarian = test system: NCI/ADR-RES ovarian
BT-549 breast = test system: BT-549 breast
SK-MEL-5 melanoma = test system: SK-MEL-5 melanoma
DU-145 prostate = test system: DU-145 prostate
IGROV1 ovarian = test system: IGROV1 ovarian
OVCAR-5 ovarian = test system: OVCAR-5 ovarian
A549 NSCLC = test system: A549 NSCLC
MCF7 breast = test system: MCF7 breast
U251 CNS = test system: U251 CNS
SR leukemia = test system: SR leukemia
NCI-H460 lung = test system: NCI-H460 lung

| Structure (SMILES) | TGI (EKVX NSCLC) [µM] | TGI (NCI/ADR-RES ovarian) [µM] | TGI (BT-549 breast) [µM] | TGI (SK-MEL-5 melanoma) [µM] | TGI (DU-145 prostate) [µM] | TGI (IGROV1 ovarian) [µM] | TGI (OVCAR-5 ovarian) [µM] | TGI (A549 NSCLC) [µM] | TGI (MCF7 breast) [µM] | TGI (U251 CNS) [µM] | TGI (SR leukemia) | TGI (NCI-H460 lung) [µM] | GI50 (NCI/ADR-RES ovarian) | GI50 (SK-MEL-5 melanoma) | GI50 (IGROV1 ovarian) | GI50 (SR leukemia) |
| --- | --- | --- | --- | --- | --- | --- | --- | --- | --- | --- | --- | --- | --- | --- | --- | --- |
| CC#CC(O)(C(=O)OC1CC(C)N(C)C(C)(C)C1)C1CCCC1 (configuration not stated) | > 100 | 93.6 | > 100 | > 100 | > 100 | > 100 | > 100 | > 100 | > 100 | > 100 | > 100 µM |  |  |  |  |  |
| COC(=O)N1N=C(c2ccccc2)C1c1ccccc1 (configuration not stated) | > 100 | 69.2 | > 100 |  | > 100 |  | > 100 | > 100 | > 100 | > 100 | > 100 µM | > 100 |  |  |  |  |
| O=C(/C=C/c1ccc2c(c1)OCO2)Cc1nc2ccccc2[nH]c1=O | > 100 | > 100 | > 100 | > 100 | 71.6 | > 100 | > 100 | 62 | > 100 | 34.2 | > 100 µM | > 100 |  |  |  |  |
| O=C(OCC1OC(n2nc(Cn3nnc(-c4cccnc4)n3)n(-c3cccc4ccccc34)c2=S)C(OC(=O)c2ccccc2)C1OC(=O)c1ccccc1)c1ccccc1 (configuration not stated) | > 100 | > 100 | > 100 | > 100 | > 100 | > 100 | > 100 | > 100 | > 100 | > 100 | > 100 µM | > 100 |  |  |  |  |
| COC(=O)C1(O)C(c2ccccc2)=NC2(C)CCCC21 (configuration not stated) |  | > 100 | > 100 | > 100 | > 100 | > 100 | > 100 | > 100 |  | > 100 | > 100 µM | > 100 |  |  |  |  |
| Clc1ccc(/C(=C\c2ccccc2)Cn2ccnc2)cc1 | 68.4 | 38 | 38 | 25.6 | 58.3 | > 100 | 63 | 49.4 | 44.5 | 31.2 | > 100 µM | 44.8 |  |  |  |  |
| O=C(CC(=O)Nc1ccccc1)NNC(c1cc(N=Nc2ccc(Br)cc2)ccc1O)P(O)O (configuration not stated) |  | > 10 | > 10 | > 10 | > 10 | > 10 | > 10 | > 10 | > 10 | > 10 | > 10 µM | > 10 |  |  |  |  |
| O=[N+]([O-])/C(Cl)=C(\NCCN/C(C(Cl)=C(Cl)Cl)=C(/Cl)[N+](=O)[O-])C(Cl)=C(Cl)Cl | > 100 | > 100 | > 100 |  | > 100 | > 100 | > 100 | > 100 | > 100 | > 100 | 50.4 µM | > 100 |  |  |  |  |
| CCOP(=O)(OCC)OC1CC(n2cc(C)c(=O)n(C)c2=O)OC1CO[Si](C)(C)C(C)(C)C (configuration not stated) | 68.4 | > 100 | > 100 | > 100 | > 100 | > 100 | > 100 | > 100 | > 100 | > 100 | > 100 µM | > 100 |  |  |  |  |
| CC(C)=CCC[C@@H](C)C1=C(O)C(N)=C(C)C(=O)C1=O | > 100 | 24.7 | > 100 | > 86 | > 100 | > 40.2 | > 100 | > 100 | > 100 | > 100 | > 78.4 µM | > 100 |  |  |  |  |
| C=CCN1C(=O)/C(=C/c2ccc(C)cc2)N=C1SC1OC(COC(C)=O)C(OC(C)=O)C(OC(C)=O)C1OC(C)=O (configuration not stated) | > 100 | > 100 | > 100 | > 100 | > 100 | > 100 | > 100 | > 100 | > 100 | > 100 | > 76.5 µM and 44.3 µM | > 100 | > 100 µM and 32.5 µM | 11.2 µM and 32.9 µM | > 100 µM and 24.7 µM | 26.5 µM and 10.8 µM |
| C=CC(=O)N1C/C(=C\c2ccc(Cl)cc2)C(=O)/C(=C/c2ccc(Cl)cc2)C1 | 4.72 | 9.41 | 1.09 | 5.11 | 3.66 | 0.678 | 2.1 | 1.64 | 0.845 | 0.983 | > 100 µM | 1.18 |  |  |  |  |
| Cc1c(-c2ccccc2)[nH]n(C2=NCCN2)c1=O | > 100 | > 100 | > 100 | > 100 |  | > 100 | > 100 | > 100 | > 100 | > 100 | > 100 µM | > 100 |  |  |  |  |
| COc1ccc(Oc2cnn(C(Br)(Br)C(C)=O)c(=O)c2Br)cc1 | 36.1 | 43.9 | 32.1 | 30 | 42.2 | 42.8 | 32.2 | 60.7 | 34.8 | 27.8 | 5.32 µM | 37.1 |  |  |  |  |
| O=S1(=O)C[C@@H](NCc2ccccc2)[C@H](NCc2ccccc2)C1 | > 100 | > 100 | > 100 | > 100 | > 100 | > 100 | > 100 | > 100 | > 100 | > 100 | > 100 µM | > 100 |  |  |  |  |
| CC(C)[Si](OC/C(=C/COC(C)(C)C)[C@H]1CC=C(C(=O)c2ccccc2N2CN(C)C(=O)N(C)C2)C1)(C(C)C)C(C)C | 30.3 | 32.7 | 26.5 | 23.1 | 29.9 | 25.6 | 28.7 | 23 | 15.1 | 23 | 5.95 µM | 28.7 |  |  |  |  |
| S=C1NC2=C(CSC/C2=C\c2ccccc2)C(c2ccccc2)N1 (configuration not stated) | > 100 | > 100 | 78.7 | 24.5 | > 100 | > 100 | > 100 | > 100 | > 100 | > 100 | > 100 µM | > 100 |  |  |  |  |
| C(=C\c1ccccc1)/COc1ccccc1C(N1CCOCC1)n1nc2ccccc2n1 (configuration not stated) | 49.6 | 22.6 | 26.4 | 13.8 | 63.3 | 41.6 | 44.9 | > 89.2 | 6.57 | 17.6 | 5.49 µM | > 51.3 |  |  |  |  |
